Experimental findings from patent publication US10294236B2, “Compounds as rearranged during transfection (RET) inhibitors” (GLAXOSMITHKLINE INTELLECTUAL PROPERTY DEVELOPMENT LIMITED, priority 2014, dated 2019) are described below.

As a reminder, the IC50 is the concentration that inhibits the measured activity by half. A lower IC50 goes with greater potency in that assay.

Structures can show the parent of a compound that is named as a salt.

The target of the experiment is T1, Human RET kinase cytoplasmic domain (Homo sapiens, UniProt P07949).
T1 construct: made in house
T1 sequence (P07949 658-1114): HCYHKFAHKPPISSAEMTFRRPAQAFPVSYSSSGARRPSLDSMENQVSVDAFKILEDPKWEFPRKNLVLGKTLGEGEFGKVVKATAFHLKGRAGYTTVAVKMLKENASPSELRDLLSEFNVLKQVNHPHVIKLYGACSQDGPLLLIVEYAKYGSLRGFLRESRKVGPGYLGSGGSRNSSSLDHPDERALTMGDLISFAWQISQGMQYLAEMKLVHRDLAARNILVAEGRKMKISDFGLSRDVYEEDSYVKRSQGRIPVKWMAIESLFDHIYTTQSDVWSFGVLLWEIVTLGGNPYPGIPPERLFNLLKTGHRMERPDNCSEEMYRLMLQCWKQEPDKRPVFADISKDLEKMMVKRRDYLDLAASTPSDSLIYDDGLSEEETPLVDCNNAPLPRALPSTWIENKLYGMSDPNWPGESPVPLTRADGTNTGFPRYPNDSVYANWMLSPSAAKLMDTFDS
The experiment can be described thus: RET kinase enzymatic assay. It is filed as biochemical. On the procedure: GST-RET was purified using glutathione sepharose chromatography. The RET kinase enzymatic assay was performed in a total volume of 10 uL with increasing concentrations of RET kinase inhibitor as a singlet in a 384 well format as follows: RET inhibitor compound plates are prepared by adding 100 nL of RET inhibitor at different concentrations to a 384-well plate. 5 μL/well of a 2× enzyme mix (50 mM HEPES (4-(2-hydroxyethyl)-1-piperazineethanesulfonic acid); 1 mM CHAPS (3-[(3-cholamidopropyl)dimethylammonio]-1-propanesulfonate); 0.1 mg/mL BSA (bovine serum albumin); 1 mM DTT (dithiothreitol); 0.2 nM RET kinase) was added to the 384-well plate and incubated for 30 minutes at 23° C. 5 µL/well of a 2× substrate mix (50 mM HEPES; 1 mM CHAPS; 0.1 mg/mL BSA; 20 μM adenosine triphosphate; 20 mM MgCl2 and 1 μM biotinylated peptide substrate) was added and incubated for 1 hour at 23° C. […] IC50s were fitted using GraphPad Prism to a sigmoidal dose response.
The compound `CC(C)Oc1cc(-c2ccc(NC(=O)Nc3ccc(OC4(C)COC4)c(C(F)(F)F)c3)c(F)c2)c[nH]c1=O` [Example 136] returned a concentration for half-maximal inhibition (IC50) below 100 nM.
For `CCOc1cc(-c2ccc(NC(=O)Nc3ccc(OC4(C)CCN(C(C)C)C4)c(C(F)(F)F)c3)c(F)c2)c[nH]c1=O` (centres unmarked) [Example 85], the IC50 is below 100 nM.
For the compound `CCOc1cc(-c2ccc(NC(=O)Nc3ccc(OC4(CO)CC4)c(C(F)(F)F)c3)c(F)c2)c[nH]c1=O` [Example 123], the IC50 is below 100 nM.
In turn, `CCOc1cc(-c2ccc(NC(=O)Nc3ccc(OC4(C)COC4)c(C(F)(F)F)c3)c(OC(C)C)n2)c[nH]c1=O` [Example 115] showed an IC50 of 500 to 10000 nM.
The value for `CCOc1cc(-c2ncc(NC(=O)Nc3cc(C(F)(F)F)c(CN(C)C)cc3F)c(C)n2)c[nH]c1=O` [Example 190, 1-(4-((Dimethylamino)methyl)-2-fluoro-5-(trifluoromethyl)phenyl)-3-(2-(5-ethoxy-6-oxo-1,6-dihydropyridin-3-yl)-4-methylpyrimidin-5-yl)urea dihydrochloride] was below 100 nM; that for `CCOc1cc(-c2ccc(NC(=O)Nc3ccc(Cc4cnn(C)c4)c(C(F)(F)F)c3)c(F)c2)c[nH]c1=O` [Example 146] was below 100 nM; that for `CC1(Oc2ccc(NC(=O)Nc3ccc(-c4c[nH]c(=O)cc4F)cc3F)cc2C(F)(F)F)COC1` [Example 37, 1-(2-Fluoro-4-(4-fluoro-6-oxo-1,6-dihydropyridin-3-yl)phenyl)-3-(4-((3-methyloxetan-3-yl)oxy)-3-(trifluoromethyl)phenyl)urea] was below 100 nM.
`Cc1nc(-c2c[nH]c(=O)c3occc23)ncc1NC(=O)Nc1cnc(C(C)(C)O)c(C(F)(F)F)c1` [Example 39, 1-(6-(2-Hydroxypropan-2-yl)-5-(trifluoromethyl)pyridin-3-yl)-3-(4-methyl-2-(7-oxo-6,7-dihydrofuro[2,3-c]pyridin-4-yl)pyrimidin-5-yl)urea]: the IC50 is below 100 nM.
The figure for `O=C(Nc1ccc(F)c(C(F)(F)F)c1)Nc1ccc(-c2c[nH]c(=O)c(OCCCF)c2)cc1F` [Example 107] is below 100 nM; for `CCOc1cc(-c2ccc(NC(=O)Nc3ccc(C#N)c(C(F)(F)F)c3)c(F)c2)c[nH]c1=O` [Example 158] it is below 100 nM.
Turning to `CC1(Oc2ccc(NC(=O)Nc3ccc(-c4c[nH]c(=O)c5cn[nH]c45)cc3F)cc2C(F)(F)F)COC1` [Example 4, 1-(2-Fluoro-4-(4-oxo-4,5-dihydro-1H-pyrazolo[4,3-c]pyridin-7-yl)phenyl)-3-(4-((3-methyloxetan-3-yl)oxy)-3-(trifluoromethyl)phenyl)urea], the IC50 was below 100 nM.
The figure for `COc1cc(-c2ccc(NC(=O)Nc3ccc(OC4(C)COC4)c(C(F)(F)F)c3)cc2)c[nH]c1=O` [Example 21, 1-(4-(5-Methoxy-6-oxo-1,6-dihydropyridin-3-yl)phenyl)-3-(4-((3-methyloxetan-3-yl)oxy)-3-(trifluoromethyl)phenyl)urea] is below 100 nM; for `CCOc1cc(-c2ncc(NC(=O)Nc3cc(C(=O)NCCN(C)C)cc(C(F)(F)F)c3)cn2)c[nH]c1=O` [Example 189, N-(2-(Dimethylamino)ethyl)-3-(3-(2-(5-ethoxy-6-oxo-1,6-dihydropyridin-3-yl)-pyrimidin-5-yl)ureido)-5-(trifluoromethyl)benzamide] it is below 100 nM.
The value for `CC(C)(C)c1cc(NC(=O)Nc2ccc(-c3ccc(=O)[nH]c3)cc2)n(-c2ccccc2)n1` [Example 68, 1-(3-(tert-Butyl)-1-phenyl-1H-pyrazol-5-yl)-3-(4-(6-oxo-1,6-dihydropyridin-3-yl)phenyl)urea] was below 100 nM; that for `CC1(Oc2ccc(NC(=O)Nc3ccc(-c4ccc(=O)[nH]c4)cc3F)cc2C(F)(F)F)COC1` [Example 147] was below 100 nM; that for `CCOc1ccc(NC(=O)Nc2ccc(-c3c[nH]c(=O)c4c3CCC4)cc2F)cc1C(F)(F)F` [Example 3, 1-(4-Ethoxy-3-(trifluoromethyl)phenyl)-3-(2-fluoro-4-(1-oxo-2,5,6,7-tetrahydro-1H-cyclopenta[c]pyridin-4-yl)phenyl)urea] was below 100 nM.
The figure for `CCOc1cc(-c2ccc(NC(=O)Nc3ccc(CN4CCOCC4)c(C(F)(F)F)c3)c(F)c2)c[nH]c1=O` [Example 45, 1-(4-(5-Ethoxy-6-oxo-1,6-dihydropyridin-3-yl)-2-fluorophenyl)-3-(4-(morpholinomethyl)-3-(trifluoromethyl)phenyl)urea] is below 100 nM; for `CCOc1cc(-c2ccc(NC(=O)Nc3cc(-n4cncn4)cc(C(F)(F)F)c3)c(F)c2)c[nH]c1=O` [Example 72, 1-(3-(1H-1,2,4-Triazol-1-yl)-5-(trifluoromethyl)phenyl)-3-(4-(5-ethoxy-6-oxo-1,6-dihydropyridin-3-yl)-2-fluorophenyl)urea hydrochloride] it is below 100 nM; for `CCOc1cc(-c2ncc(NC(=O)Nc3ccc(C(C)(C)O)c(C(F)(F)F)c3)c(C)n2)c[nH]c1=O` [Example 71, 1-(2-(5-Ethoxy-6-oxo-1,6-dihydropyridin-3-yl)-4-methylpyrimidin-5-yl)-3-(4-(2-hydroxypropan-2-yl)-3-(trifluoromethyl)phenyl)urea] it is below 100 nM.
Compound `CCOc1cc(-c2ccc(NC(=O)Nc3ccc(OC(C)(C)C#N)c(C(F)(F)F)c3)c(F)c2)c[nH]c1=O` [Example 83] displayed an IC50 below 100 nM.
The compound `CCOc1cc(-c2nc(C)c(NC(=O)Nc3ccc(CN(C)C)c(C(F)(F)F)c3)c(C)n2)c[nH]c1=O` [Example 59, 1-(4-((Dimethylamino)methyl)-3-(trifluoromethyl)phenyl)-3-(2-(5-ethoxy-6-oxo-1,6-dihydropyridin-3-yl)-4,6-dimethylpyrimidin-5-yl)urea] showed an IC50 below 100 nM.
The value for `CCOc1cc(-c2ccc(NC(=O)Nc3ccc(OC4CC(F)(F)C4)c(C(F)(F)F)c3)c(F)c2)c[nH]c1=O` [Example 161] was below 100 nM; that for `CC(C)Oc1ccc(NC(=O)Nc2ccc(-c3ccc(=O)[nH]c3)cc2)cc1C(F)(F)F` [Example 163] was below 100 nM; that for `CCN1CCN(Cc2cc(F)c(NC(=O)Nc3cnc(-c4c[nH]c(=O)c(OCCO)c4)nc3C)cc2C(F)(F)F)CC1` [Example 172, 1-(4-((4-Ethylpiperazin-1-yl)methyl)-2-fluoro-5-(trifluoromethyl)phenyl)-3-(2-(5-(2-hydroxyethoxy)-6-oxo-1,6-dihydropyridin-3-yl)-4-methylpyrimidin-5-yl)urea] was below 100 nM.
The value for `CCCOc1cc(-c2ccc(NC(=O)Nc3ccc(OC4(C)COC4)c(C(F)(F)F)c3)c(F)c2)c[nH]c1=O` [Example 138] was below 100 nM.
The figure for `CCOc1cc(=O)[nH]cc1-c1ncc(NC(=O)Nc2ccc(C(C)(C)C#N)c(C(F)(F)F)c2)c(C)n1` [Example 26, 1-(4-(2-Cyanopropan-2-yl)-3-(trifluoromethyl)phenyl)-3-(2-(4-ethoxy-6-oxo-1,6-dihydropyridin-3-yl)-4-methylpyrimidin-5-yl)urea] is below 100 nM; for `CC1(Oc2ccc(NC(=O)Nc3ccc(-c4c[nH]c(=O)c5ccoc45)cc3F)cc2C(F)(F)F)COC1` [Example 19, 1-(2-Fluoro-4-(4-oxo-4,5-dihydrofuro[3,2-c]pyridin-7-yl)phenyl)-3-(4-((3-methyloxetan-3-yl)oxy)-3-(trifluoromethyl)phenyl)urea] it is below 100 nM; for `CCN1CCN(Cc2cc(F)c(NC(=O)Nc3cnc(-c4c[nH]c(=O)cc4OCCOC)nc3C)cc2C(F)(F)F)CC1` [Example 182, 1-(4-((4-Ethylpiperazin-1-yl)methyl)-2-fluoro-5-(trifluoromethyl)phenyl)-3-(2-(4-(2-methoxyethoxy)-6-oxo-1,6-dihydropyridin-3-yl)-4-methylpyrimidin-5-yl)urea] it is below 100 nM.
Take `CCOc1cc(-c2ncc(NC(=O)Nc3ccc(Cl)c(C(F)(F)F)c3)c(C)n2)c[nH]c1=O` [Example 60, 1-(4-Chloro-3-(trifluoromethyl)phenyl)-3-(2-(5-ethoxy-6-oxo-1,6-dihydropyridin-3-yl)-4-methylpyrimidin-5-yl)urea]: the IC50 was below 100 nM.
For the compound `CCOc1cc(-c2ccc(NC(=O)Nc3ccc(CC(C)(C)C#N)c(C(F)(F)F)c3)c(F)c2)c[nH]c1=O` [Example 81], the IC50 is below 100 nM.
The value for `CCOc1cc(-c2ncc(NC(=O)Nc3ccc(C(C)C#N)c(C(F)(F)F)c3)c(C)n2)c[nH]c1=O` (centres unmarked) [Example 25, 1-(4-(1-Cyanoethyl)-3-(trifluoromethyl)phenyl)-3-(2-(5-ethoxy-6-oxo-1,6-dihydropyridin-3-yl)-4-methylpyrimidin-5-yl)urea] was below 100 nM; that for `CCOc1cc(-c2cnc(NC(=O)Nc3ccc(OC4(C)COC4)c(C(F)(F)F)c3)cc2C)c[nH]c1=O` [Example 62, 1-(5′-Ethoxy-4-methyl-6′-oxo-1′,6′-dihydro-[3,3′-bipyridin]-6-yl)-3-(4-((3-methyloxetan-3-yl)oxy)-3-(trifluoromethyl)phenyl)urea] was below 100 nM.
